System: DEN2 virus
Assay: Plaque inhibition assay in Vero cells
Type: cell-based, Dengue virus serotype 2
Conditions: Dengue virus, 120 h
Protocol: Vero cells were grown in 24-wells plates until the monolayer reached approximately 90% confluence and two washes of the monolayer were done with medium MEM without SFB. Preparations of DEN2 virus equivalent to a multiplicity of infection of 0.1 were preincubated in MEM medium with and without presence of chemical compounds (100 uM) for about 1 hour at room temperature. Then, the virus/compounds mixture and virus/control mixture were incubated with monolayers for 1 hour at 37° C. After finished incubation, the cells were washed again and incubated during 5 days at 37° C. in high-density medium (MEM supplemented with non-essential amino acids, SFB 1%, carboxymethylcellulose 1%) to facilitate formation of lysis plaques. Blue Black Naphtol 0.1% in sodium acetate 0.15 mol/L was used for staining. In each experiment two replics were tested for each point and three independent determinations were done. The percentage of infection inhibition was calculated according to the following expression: […]

SMILES | inhibition at 100 µM [%]
CC1CCCC(C)N1S(=O)(=O)c1ccc(S(N)(=O)=O)cc1 (stereo not shown) [C-SIJ01051] | 30 to 100
O=C(O)[C@H]1CCCN(S(=O)(=O)c2ccc(S(=O)(=O)N3CCCCC3)cc2)C1 [C-SIJ06111] | 70 to 100
O=S(=O)(NCc1ccco1)c1ccc(S(=O)(=O)NC2CCCCC2)cc1 [C-SIJ01020] | 70 to 100
CC1CCCC(C)N1S(=O)(=O)c1ccc(S(=O)(=O)NCCc2ccncc2)cc1 (stereo not shown) [C-SIJ01047] | 70 to 100
O=S(=O)(NC(c1ccccc1)c1ccccc1)c1ccc(S(=O)(=O)N2CCCCC2)cc1 [C-SIJ01039] | 70 to 100
O=CN1CCN(S(=O)(=O)c2ccc(S(=O)(=O)N3CCOCC3)cc2)CC1 [C-SIJ06102] | 30 to 100
O=C(CC1C(=O)c2ccccc2C1=O)Oc1ccc(-c2ccc(OC(=O)CN3C(=O)c4ccccc4C3=O)cc2)cc1 | 0 to 30
O=S(=O)(Nc1ccccc1OC(F)F)c1ccc(S(=O)(=O)N2CCOCC2)cc1 [C-SIJ01066] | 70 to 100
O=S(=O)(NCc1ccc(F)cc1)c1ccc(S(=O)(=O)N2CCCCC2)cc1 [C-SIJ01033] | 30 to 100
COc1ccc(/C=N/NC(=O)Cc2ccc([N+](=O)[O-])cc2)cc1OC [C-SIJ12143] | 70 to 100
O=S(=O)(NCc1ccc2c(c1)OCO2)c1ccc(S(=O)(=O)NC2CCCCC2)cc1 [C-SIJ01006] | 70 to 100
O=c1c2cc3c(=O)n(CCCn4ccnc4)c(=O)c3cc2c(=O)n1CCCn1ccnc1 | 0 to 30
NS(=O)(=O)c1ccc(S(=O)(=O)N2CCOCC2)cc1 [C-SIJ06099] | 30 to 100
O=S(=O)(NCC1CC1)c1ccc(S(=O)(=O)N2CCCCC2)cc1 [C-SIJ01034] | 30 to 100
O=S(=O)(NCCO)c1ccc(S(=O)(=O)N2CCCCC2)cc1 [C-SIJ01042] | 70 to 100
O=S(=O)(NCCC1=CCCCC1)c1ccc(S(=O)(=O)NCc2ccc3c(c2)OCO3)cc1 [C-SIJ01009] | 70 to 100
O=S(=O)(NCCc1ccccc1)c1ccc(S(=O)(=O)N2CCCCC2)cc1 [C-SIJ01031] | 70 to 100
CC(C)(C)C(=O)CNS(=O)(=O)c1ccc(S(=O)(=O)N2CCOCC2)cc1 [C-SIJ01062] | 70 to 100
O=S(=O)(NCc1ccccc1)c1ccc(S(=O)(=O)NC2CC2)cc1 [C-SIJ01003] | 30 to 100
CCN(Cc1ccccc1)S(=O)(=O)c1ccc(S(=O)(=O)N2CCOCC2)cc1 [C-SIJ06097] | 70 to 100
O=C(CN1C(=O)c2ccccc2S1(=O)=O)Nc1ccc(S(=O)(=O)N2CCCCCC2)cc1 [C-SIJ04078] | 70 to 100
COC(CNS(=O)(=O)c1ccc(S(=O)(=O)N2CCOCC2)cc1)OC [C-SIJ01056] | 70 to 100
CCCCNS(=O)(=O)c1ccc(S(=O)(=O)N2CCN(C(C)=O)CC2)cc1 [C-SIJ01026] | 30 to 100
CC(=O)N1CCN(S(=O)(=O)c2ccc(S(=O)(=O)NC3CCCCC3)cc2)CC1 [C-SIJ01023] | 70 to 100
CS(=O)(=O)N1CCN(S(=O)(=O)c2ccc(S(=O)(=O)N3CCOCC3)cc2)CC1 [C-SIJ06103] | 70 to 100
O=S(=O)(NCc1ccccc1)c1ccc(S(=O)(=O)NC2CCCCC2)cc1 [C-SIJ01002] | 70 to 100
CC(C)CNS(=O)(=O)c1ccc(S(=O)(=O)N2C(C)CCCC2C)cc1 (stereo not shown) [C-SIJ01045] | 30 to 100
O=S(=O)(NCc1ccc2c(c1)OCO2)c1ccc(S(=O)(=O)NC2CC2)cc1 [C-SIJ01008] | 30 to 100
